Source: US4560509A, “Antibiotic A39079 factor S-1” (Eli Lilly and Company, priority 1983, dated 1985)
≈ marks a conversion by molar mass, not a printed value.

Experiments:
solubility = format: physicochemical
titration = format: physicochemical; details: 66% aqueous dimethylformamide
Salmonella typhi X514 = experiment: standard agar-dilution MIC assay; format: cell-based; details: Salmonella enterica
Source text: (§1) Table V summarizes the minimal inhibitory concentrations (MIC) at which factor S-1 inhibits certain organisms as determined by standard agar-dilution assays. In Table V, the activity of factor S-1 is compared with that of rifampin.

[1] = tested on: Staphylococcus aureus V41; experiment: standard agar-dilution MIC assay; format: cell-based; details: agar dilution; Staphylococcus aureus V41; read-out: MIC
Source text: as §1

[2] = tested on: Streptococcus faecium ATCC 9790; experiment: standard agar-dilution MIC assay; format: cell-based; details: Enterococcus faecium, ATCC9790; agar dilution; Streptococcus faecium ATCC 9790; read-out: MIC
Source text: as §1

[3] = tested on: Pseudomonas aeruginosa Ps72; experiment: standard agar-dilution MIC assay; format: cell-based
Source text: as §1

[4] = tested on: Staphylococcus aureus NRRL B313; experiment: standard agar-dilution MIC assay; format: cell-based; details: NRRLB313; agar dilution; Staphylococcus aureus NRRL B313; read-out: MIC
Source text: as §1

[5] = tested on: Citrobacter freundii CF17; experiment: standard agar-dilution MIC assay; format: cell-based; details: agar dilution; Citrobacter freundii CF17; read-out: MIC
Source text: as §1

[6] = tested on: Staphylococcus aureus S13E; experiment: standard agar-dilution MIC assay; format: cell-based
Source text: as §1

[7] = tested on: Enterobacter aerogenes EB17; experiment: standard agar-dilution MIC assay; format: cell-based; details: Klebsiella aerogenes; agar dilution; Enterobacter aerogenes EB17; read-out: MIC
Source text: as §1

[8] = tested on: Pseudomonas aeruginosa Ps18; experiment: standard agar-dilution MIC assay; format: cell-based
Source text: as §1

[9] = tested on: Klebsiella pneumoniae KAE; experiment: standard agar-dilution MIC assay; format: cell-based; details: agar dilution; Klebsiella pneumoniae KAE; read-out: MIC
Source text: as §1

Proteus inconstans PR33 = experiment: standard agar-dilution MIC assay; format: cell-based; details: Providencia alcalifaciens; agar dilution; Proteus inconstans PR33; read-out: MIC
Source text: as §1

[10] = tested on: Pseudomonas aeruginosa X528; experiment: standard agar-dilution MIC assay; format: cell-based; details: agar dilution; Pseudomonas aeruginosa X528; read-out: MIC
Source text: as §1

[11] = tested on: Haemophilus influenzae C.L.; experiment: standard agar-dilution MIC assay; format: cell-based
Source text: as §1

[12] = tested on: Enterobacter cloacae 265A; experiment: standard agar-dilution MIC assay; format: cell-based; details: agar dilution; Enterobacter cloacae 265A; read-out: MIC
Source text: as §1

[13] = tested on: Pseudomonas aeruginosa X239; experiment: standard agar-dilution MIC assay; format: cell-based; details: agar dilution; Pseudomonas aeruginosa X239; read-out: MIC
Source text: as §1

[14] = tested on: Haemophilus influenzae 76; experiment: standard agar-dilution MIC assay; format: cell-based
Source text: as §1

Salmonella typhi 1335 = experiment: standard agar-dilution MIC assay; format: cell-based; details: Salmonella enterica
Source text: as §1

[15] = tested on: Enterobacter aerogenes C32; experiment: standard agar-dilution MIC assay; format: cell-based; details: Klebsiella aerogenes; agar dilution; Enterobacter aerogenes C32; read-out: MIC
Source text: as §1

Escherichia coli N10 = experiment: standard agar-dilution MIC assay; format: cell-based
Source text: as §1

Shigella sonnei N9 = experiment: standard agar-dilution MIC assay; format: cell-based
Source text: as §1

Enterobacter cloacae EB5 = experiment: standard agar-dilution MIC assay; format: cell-based; details: agar dilution; Enterobacter cloacae EB5; read-out: MIC
Source text: as §1

With `CC(=O)OC1C(C)C(O)C=COC2(C)Oc3c(C)c(O)c4c(c3C2=O)C(=O)C(C)=C(NC(=O)C=CC=CC(C)C(O)C(C)C(O)C1C)C4=O` (stereo not drawn) [Factor S-1] the solubility (solubility; solvents such as methanol, acetonitrile and acetone) was “soluble”, the solubility (solubility; water) was “only slightly soluble” and the pKa (titration) was 8. The MIC (Salmonella typhi X514) was 32 µg/mL (≈ 46.9 µM), the MIC [1] was 0.015 µg/mL (≈ 0.022 µM) and the MIC [2] was 1 µg/mL (≈ 1.47 µM). For the same compound, the MIC [3] was 16 µg/mL (≈ 23.5 µM), the MIC [4] was 0.015 µg/mL (≈ 0.022 µM) and the MIC [5] was 16 µg/mL (≈ 23.5 µM). The MIC [6] was 0.015 µg/mL (≈ 0.022 µM), the MIC [7] was 32 µg/mL (≈ 46.9 µM) and the MIC [8] was over 128 µg/mL. For the same compound, the MIC [9] was 16 µg/mL (≈ 23.5 µM), the MIC (Proteus inconstans PR33) was 8 µg/mL (≈ 11.7 µM) and the MIC [10] was 16 µg/mL (≈ 23.5 µM). For the same compound, the MIC [11] was 0.25 µg/mL (≈ 0.367 µM), the MIC [12] was 32 µg/mL (≈ 46.9 µM) and the MIC [13] was 16 µg/mL (≈ 23.5 µM). It also gave an MIC [14] of 0.125 µg/mL (≈ 0.183 µM), an MIC (Salmonella typhi 1335) of 32 µg/mL (≈ 46.9 µM) and an MIC [15] of 16 µg/mL (≈ 23.5 µM). It also gave an MIC (Escherichia coli N10) of 8 µg/mL (≈ 11.7 µM), an MIC (Shigella sonnei N9) of 8 µg/mL (≈ 11.7 µM) and an MIC (Enterobacter cloacae EB5) of 32 µg/mL (≈ 46.9 µM).
